# Assay results reported in US20030144190A1, “Method of modulating and antiapoptotic and antiapoptotic pathways in cells” (priority 2003, published 2003).
# Test system: CREF/RasV12
# Test: Apoptosis by flow cytometry (cells with hypodiploid DNA content) in Ras-transformed fibroblasts
# Type: cell-based, rat
smiles,measurement,setting,value
C[C@@H]1C[C@@H]([C@H](O)CC2CC(=O)NC(=O)C2)C(=O)[C@@H](C)C1 [cycloheximide],lovastatin-induced apoptosis in the presence of translational inhibitors,,blocked apoptosis
CC[C@H](C)C(=O)O[C@H]1C[C@@H](C)C=C2C=C[C@H](C)[C@H](CC[C@@H]3C[C@@H](O)CC(=O)O3)[C@H]21 [lovastatin],apoptosis observed in the presence of lovastatin alone,"5 μM lovastatin, 24 h",2 to 8%
